Assay results from US8133907B2, “Pyridine derivatives as dipeptedyl peptidase inhibitors” (Eli Lilly and Company, priority 2005, dated 2012).
Structures can show the parent of a compound that is named as a salt.

Target: T1, human recombinant DPIV enzyme (Homo sapiens, UniProt P27487)
T1 construct: Secreted DPIV (lacking membrane anchor) is enriched from HEK293 cell culture supernatant; made in house; host or cells: HEK293
Assay: Human Recombinant DPIV Activity Assay (fluorometric end point, Gly-Pro-AMC substrate)
Assay type: biochemical
Conditions: enriched human recombinant DPIV enzyme (21.3 μU/μl), Gly-Pro-AMC 0.02 mM, 12 points concentration response curve, duplicate
Experimental: Human Recombinant DPIV Activity Assay
The DPIV assay uses a fluorometric end point assay (excitation 355 nm; emission 460 nm), enriched human recombinant DPIV enzyme (21.3 μU/μl), and Gly-Pro-AMC (Bachem I-1225) as substrate (0.02 mM). Secreted DPIV (lacking membrane anchor) is enriched from HEK293 cell culture supernatant by ultrafiltration, ultra-centrifugation, and size-exclusion chromatography. IC50 values of the compounds are calculated based on a 12 points concentration response curve. Each concentration is measured in duplicate. The assay is validated by plate variability and conformity, inter-plate variability, signal window, and minimum significant ration of IC50. A MSR is calculated based on a test/retest analysis and a retrospective analysis. The MSR value is 1.8.

T1 sequence (P27487 29-766 limits assumed): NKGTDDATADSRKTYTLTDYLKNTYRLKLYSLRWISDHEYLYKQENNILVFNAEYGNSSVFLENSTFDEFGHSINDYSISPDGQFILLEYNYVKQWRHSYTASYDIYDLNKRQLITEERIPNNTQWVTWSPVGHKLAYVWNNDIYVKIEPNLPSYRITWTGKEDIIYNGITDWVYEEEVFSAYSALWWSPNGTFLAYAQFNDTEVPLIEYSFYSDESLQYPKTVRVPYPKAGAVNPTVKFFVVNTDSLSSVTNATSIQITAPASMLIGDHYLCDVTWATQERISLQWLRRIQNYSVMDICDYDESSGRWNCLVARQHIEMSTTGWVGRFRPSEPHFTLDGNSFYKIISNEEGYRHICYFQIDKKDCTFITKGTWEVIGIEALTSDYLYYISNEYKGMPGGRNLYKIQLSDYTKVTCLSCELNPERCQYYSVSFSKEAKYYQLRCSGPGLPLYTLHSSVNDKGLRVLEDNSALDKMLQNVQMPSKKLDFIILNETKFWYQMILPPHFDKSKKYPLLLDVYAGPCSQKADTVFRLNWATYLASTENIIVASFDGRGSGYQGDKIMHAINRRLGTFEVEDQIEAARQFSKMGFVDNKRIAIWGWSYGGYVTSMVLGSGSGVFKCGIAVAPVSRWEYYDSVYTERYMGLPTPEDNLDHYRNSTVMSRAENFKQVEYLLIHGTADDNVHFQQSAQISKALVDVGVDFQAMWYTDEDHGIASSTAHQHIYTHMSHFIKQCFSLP

| IC50 [nM] | SMILES |
| --- | --- |
| 342 | CC(C)(C)NC(=O)c1cccnc1C[C@H](O)[C@H](N)Cc1cc(F)ccc1C(F)(F)F (racemic) [Example 10, 2-[(2SR,3RS)-3-Amino-4-(5-fluoro-2-trifluoromethylphenyl)-2-hydroxybutyl]-N-tert-butylnicotinamide Dihydrochloride] |
| 30 | Cc1ccc(C)c(C[C@@H](N)[C@@H](O)Cc2ncccc2C(=O)NC(C)(C)C)c1 [Example 8, 2-[(2S,3R)-3-Amino-4-(2,5-dimethyl-phenyl)-2-hydroxy-butyl]-N-tert-butyl-nicotinamide Dihydrochloride] |
| 22 | CC(C)(NC(=O)c1cccnc1C[C@H](O)[C@H](N)Cc1ccccc1F)c1ccccc1 [Example 23, 2-[(2S,3R)-3-Amino-4-(2-fluoro-phenyl)-2-hydroxy-butyl]-N-(1-methyl-1-phenyl-ethyl)-nicotinamide Dihydrochloride] |
| 232 | N[C@H](Cc1ccccc1F)[C@@H](O)Cc1ccccn1 [Example 27, (2S,3R)-3-Amino-4-(2,-fluoro-phenyl)-1-pyridin-2-yl-butan-2-ol Dihydrochloride] |
